Consider ten compounds from ChEMBL document CHEMBL6083275, “Discovery and evaluation of HW161023 as a potent and orally active AAK1 inhibitor” (Bioorg Med Chem Lett, 2024).

The IC50 is the concentration that gives 50% inhibition. A low value points to inhibition by little substance. For orientation: clearance means the rate of elimination divided by the concentration. A word on the AUC(0-t): it is the area under the concentration-time curve up to a stated or last time point. Low values mean less exposure, high ones more exposure. One may read the half-life as the time in which the quantity being followed falls by half. As usually defined, the Cmax is the highest concentration seen after dosing. What is called Tmax is the time from dosing to the highest level. As a reminder, the fraction unbound is free concentration divided by total concentration. Broadly, the inhibition is how much of the control response was suppressed. Low readings indicate little suppression, high ones strong suppression.

The target of data set [1] is AP2-associated protein kinase 1 (Homo sapiens, UniProt Q2M2I8). Briefly: Inhibition of AAK1 (unknown origin).
Data set [2] is described as follows: Clearance in C57BL/6J mouse at 1 mg/kg, iv. The data set is classed as ADME, organism-based. Conditions: in vivo.
Data set [3] can be described thus: Apparent volume of distribution in C57BL/6J mouse at 1 mg/kg, iv. Particulars: in vivo, read-out: Vz. In kind it is ADME, organism-based.
Data set [4] can be described thus: AUC (0 to 24 hrs) in C57BL/6J mouse at 1 mg/kg, iv. The data set is classed as ADME, organism-based. Particulars: in vivo.
Data set [5] can be described thus: Half-life in C57BL/6J mouse at 1 mg/kg, iv. The data set is classed as ADME, organism-based. Particulars: in vivo.
The nature of data set [6]: Cmax in C57BL/6J mouse at 10 mg/kg, po. The data set is classed as ADME, organism-based. Conditions: in vivo.
A short description of data set [7]: Tmax in C57BL/6J mouse at 10 mg/kg, po. In kind it is ADME, organism-based. Conditions: in vivo.
Data set [8] can be described thus: AUC (0 to 24 hrs) in C57BL/6J mouse at 10 mg/kg, po. The data set is classed as ADME, organism-based. Conditions: in vivo.
Data set [9] can be described thus: Half-life in C57BL/6J mouse at 10 mg/kg, po. In kind it is ADME, organism-based. Particulars: in vivo.
Data set [10] in a line: Oral bioavailability in C57BL/6J mouse at 10 mg/kg. The data set is classed as ADME, organism-based. Particulars: in vivo.
The nature of data set [11]: Metabolic stability in human liver microsomes assessed as half-life. In kind it is ADME, Microsome. In general terms: Liver microsomes are a subcellular fraction often used to study metabolism.
Data set [12] is described as follows: Metabolic stability in mouse liver microsomes assessed as half-life. In kind it is ADME, Microsome.
Data set [13] is described as follows: Metabolic stability in rat liver microsomes assessed as half-life. The data set is classed as ADME, Microsome.
The nature of data set [14]: Metabolic stability in dog liver microsomes assessed as half-life. The data set is classed as ADME, Canis lupus familiaris, Microsome.
The nature of data set [15]: Protein binding in human plasma assessed as unbound fraction. The data set is classed as ADME, cell-free.
Data set [16] can be described thus: Protein binding in mouse plasma assessed as unbound fraction. The data set is classed as ADME, cell-free.
Data set [17] can be described thus: Protein binding in rat plasma assessed as unbound fraction. The data set is classed as ADME, cell-free.
A short description of data set [18]: Protein binding in dog plasma assessed as unbound fraction. The data set is classed as ADME, cell-free, Canis lupus familiaris.
Data set [19] has as its target Voltage-gated inwardly rectifying potassium channel KCNH2 (Homo sapiens, UniProt Q12809). The data set is described as follows: Inhibition of human ERG by patch clamp assay. In kind it is toxicity. (In general: Patch clamp records ionic current or voltage across a cell membrane.)
Data set [20] is described as follows: Cytotoxicity against human HepG2 cells. The data set is classed as toxicity, cell-based.
The target of data set [21] is CYP2C9 (Homo sapiens, UniProt P11712). The data set is described as follows: Inhibition of CYP2C9 (unknown origin) at 10 uM relative to control. The data set is classed as ADME.
Data set [22] deals with CYP2D6 (Homo sapiens, UniProt P10635). Briefly: Inhibition of CYP2D6 (unknown origin) at 10 uM relative to control. The data set is classed as ADME.
Data set [23] concerns the target T1, CYP3A4 (Homo sapiens, UniProt P08684). The data set is described as follows: Inhibition of CYP3A4 (unknown origin) using midazolam as substrate at 10 uM relative to control. Conditions: probe midazolam. The data set is classed as ADME.
The target in data set [24] is T1, CYP3A4. The data set is described as follows: Inhibition of CYP3A4 (unknown origin) using testosterone as substrate at 10 uM relative to control. Conditions: probe testosterone. In kind it is ADME.
Data set [25] can be described thus: Ratio of AUC (0 to 24 hrs) in C57BL/6J mouse brain to plasma. Conditions: read-out: Ratio AUC. The data set is classed as ADME.
Data set [26] can be described thus: AUC (0 to 24 hrs) in rat at 10 mg/kg, po. The data set is classed as ADME, organism-based. Particulars: in vivo.
Data set [27] can be described thus: Tmax in rat at 10 mg/kg, po. The data set is classed as ADME, organism-based. Particulars: in vivo.
Data set [28] can be described thus: Oral bioavailability in rat at 10 mg/kg. In kind it is ADME, organism-based. Particulars: in vivo.
Data set [29] in a line: Apparent volume of distribution in rat at 1 mg/kg, iv. In kind it is ADME, organism-based. Conditions: in vivo, read-out: Vz.
A short description of data set [30]: Half-life in rat at 1 mg/kg, iv. In kind it is ADME, organism-based. Particulars: in vivo.
Data set [31] is described as follows: Clearance in rat at 1 mg/kg, iv. The data set is classed as ADME, organism-based. Conditions: in vivo.
A short description of data set [32]: AUC (0 to 24 hrs) in dog at 5 mg/kg, po. The data set is classed as ADME, organism-based, Canis lupus familiaris. Particulars: in vivo.
The nature of data set [33]: Tmax in dog at 5 mg/kg, po. Particulars: in vivo. The data set is classed as ADME, organism-based, Canis lupus familiaris.
The nature of data set [34]: Oral bioavailability in dog at 5 mg/kg. Particulars: in vivo. The data set is classed as ADME, organism-based, Canis lupus familiaris.
Data set [35] can be described thus: Apparent volume of distribution in dog at 1 mg/kg, iv. In kind it is ADME, organism-based, Canis lupus familiaris. Particulars: in vivo, read-out: Vz.
The nature of data set [36]: Half-life in dog at 1 mg/kg, iv. The data set is classed as ADME, organism-based, Canis lupus familiaris. Particulars: in vivo.
Data set [37] can be described thus: Clearance in dog at 1 mg/kg, iv. The data set is classed as ADME, organism-based, Canis lupus familiaris. Conditions: in vivo.

Some results are limits rather than exact numbers.

Chain of AP2-associated protein kinase 1 (Q2M2I8 whole entry): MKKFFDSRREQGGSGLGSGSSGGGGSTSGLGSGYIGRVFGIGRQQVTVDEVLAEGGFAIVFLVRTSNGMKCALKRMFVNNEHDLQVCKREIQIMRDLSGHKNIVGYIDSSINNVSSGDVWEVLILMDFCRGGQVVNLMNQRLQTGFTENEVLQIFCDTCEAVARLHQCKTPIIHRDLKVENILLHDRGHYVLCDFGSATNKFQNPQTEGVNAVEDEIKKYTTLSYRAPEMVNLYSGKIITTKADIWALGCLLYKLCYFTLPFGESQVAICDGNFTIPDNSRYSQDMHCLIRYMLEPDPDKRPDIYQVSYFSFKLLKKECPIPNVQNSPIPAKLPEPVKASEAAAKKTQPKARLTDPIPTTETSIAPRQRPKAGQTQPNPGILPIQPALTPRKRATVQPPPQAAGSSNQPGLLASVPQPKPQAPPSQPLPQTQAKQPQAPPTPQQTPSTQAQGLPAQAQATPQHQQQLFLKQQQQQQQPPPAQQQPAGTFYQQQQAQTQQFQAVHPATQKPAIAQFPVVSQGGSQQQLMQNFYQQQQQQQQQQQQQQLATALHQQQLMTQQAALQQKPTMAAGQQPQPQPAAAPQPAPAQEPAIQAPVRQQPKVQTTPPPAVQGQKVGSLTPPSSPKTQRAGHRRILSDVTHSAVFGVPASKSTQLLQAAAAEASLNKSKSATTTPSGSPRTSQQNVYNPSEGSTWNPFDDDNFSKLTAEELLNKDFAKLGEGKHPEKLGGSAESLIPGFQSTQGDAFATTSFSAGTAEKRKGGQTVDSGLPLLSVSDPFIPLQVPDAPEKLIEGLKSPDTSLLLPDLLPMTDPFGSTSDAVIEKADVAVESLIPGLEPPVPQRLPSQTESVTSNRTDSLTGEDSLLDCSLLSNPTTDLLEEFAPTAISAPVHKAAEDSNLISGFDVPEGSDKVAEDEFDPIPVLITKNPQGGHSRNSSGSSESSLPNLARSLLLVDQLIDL
T1 sequence (P08684 whole entry): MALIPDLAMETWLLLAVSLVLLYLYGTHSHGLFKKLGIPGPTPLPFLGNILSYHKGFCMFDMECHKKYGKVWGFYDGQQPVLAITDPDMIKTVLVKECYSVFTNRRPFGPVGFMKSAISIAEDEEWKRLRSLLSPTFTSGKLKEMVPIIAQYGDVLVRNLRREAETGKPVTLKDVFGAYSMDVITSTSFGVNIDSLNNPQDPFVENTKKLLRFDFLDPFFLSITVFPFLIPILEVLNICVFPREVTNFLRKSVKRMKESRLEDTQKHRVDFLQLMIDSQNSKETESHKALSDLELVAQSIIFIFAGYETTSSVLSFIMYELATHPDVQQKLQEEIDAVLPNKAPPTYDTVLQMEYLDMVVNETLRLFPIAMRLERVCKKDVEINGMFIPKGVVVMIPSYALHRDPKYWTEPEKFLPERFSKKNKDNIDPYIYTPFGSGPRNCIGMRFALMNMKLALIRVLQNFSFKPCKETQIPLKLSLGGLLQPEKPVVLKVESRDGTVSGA
Chain of CYP2D6 (P10635 whole entry): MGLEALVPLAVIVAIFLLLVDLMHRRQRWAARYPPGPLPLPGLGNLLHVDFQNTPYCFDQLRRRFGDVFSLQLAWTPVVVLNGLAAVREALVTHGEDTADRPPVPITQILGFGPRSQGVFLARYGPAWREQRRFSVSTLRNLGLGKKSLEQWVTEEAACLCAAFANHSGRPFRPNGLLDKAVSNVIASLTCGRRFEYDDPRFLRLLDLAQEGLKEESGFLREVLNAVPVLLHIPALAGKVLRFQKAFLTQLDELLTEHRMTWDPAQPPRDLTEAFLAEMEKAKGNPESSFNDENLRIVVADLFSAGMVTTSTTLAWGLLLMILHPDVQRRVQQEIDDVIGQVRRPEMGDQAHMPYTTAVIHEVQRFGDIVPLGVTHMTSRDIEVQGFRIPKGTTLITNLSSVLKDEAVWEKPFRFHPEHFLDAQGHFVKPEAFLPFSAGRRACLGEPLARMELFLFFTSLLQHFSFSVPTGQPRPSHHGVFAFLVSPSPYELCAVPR
Chain of Voltage-gated inwardly rectifying potassium channel KCNH2 (Q12809 whole entry): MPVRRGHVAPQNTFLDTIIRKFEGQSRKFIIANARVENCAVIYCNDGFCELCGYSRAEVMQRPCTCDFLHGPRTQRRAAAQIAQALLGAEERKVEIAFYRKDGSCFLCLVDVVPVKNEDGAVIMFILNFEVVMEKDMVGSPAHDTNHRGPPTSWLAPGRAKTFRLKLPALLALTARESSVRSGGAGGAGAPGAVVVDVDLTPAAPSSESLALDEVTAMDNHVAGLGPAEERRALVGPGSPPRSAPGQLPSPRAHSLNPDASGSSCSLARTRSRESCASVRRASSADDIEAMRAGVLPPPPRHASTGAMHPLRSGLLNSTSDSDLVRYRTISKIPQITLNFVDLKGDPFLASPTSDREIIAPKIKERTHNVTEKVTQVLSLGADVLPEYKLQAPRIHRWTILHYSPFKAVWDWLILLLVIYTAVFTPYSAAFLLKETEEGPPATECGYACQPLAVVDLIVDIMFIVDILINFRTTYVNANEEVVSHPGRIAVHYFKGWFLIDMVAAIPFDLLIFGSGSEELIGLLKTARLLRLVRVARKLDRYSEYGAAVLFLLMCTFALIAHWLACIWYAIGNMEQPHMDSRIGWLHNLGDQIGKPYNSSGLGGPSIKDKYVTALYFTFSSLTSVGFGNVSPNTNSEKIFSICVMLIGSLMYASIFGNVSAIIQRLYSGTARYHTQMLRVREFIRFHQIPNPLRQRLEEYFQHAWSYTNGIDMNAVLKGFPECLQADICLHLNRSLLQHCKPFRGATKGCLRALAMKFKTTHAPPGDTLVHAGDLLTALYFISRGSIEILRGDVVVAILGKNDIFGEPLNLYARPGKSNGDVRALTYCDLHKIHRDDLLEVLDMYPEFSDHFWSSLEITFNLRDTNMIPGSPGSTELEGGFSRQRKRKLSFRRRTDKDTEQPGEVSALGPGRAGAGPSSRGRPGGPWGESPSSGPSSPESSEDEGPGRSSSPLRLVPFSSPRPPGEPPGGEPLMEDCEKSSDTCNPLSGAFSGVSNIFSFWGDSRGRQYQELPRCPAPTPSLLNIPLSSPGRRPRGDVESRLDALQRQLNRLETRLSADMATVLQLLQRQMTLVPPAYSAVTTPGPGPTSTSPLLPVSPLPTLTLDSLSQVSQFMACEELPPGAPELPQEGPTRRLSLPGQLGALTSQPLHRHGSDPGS
Chain of CYP2C9 (P11712 whole entry): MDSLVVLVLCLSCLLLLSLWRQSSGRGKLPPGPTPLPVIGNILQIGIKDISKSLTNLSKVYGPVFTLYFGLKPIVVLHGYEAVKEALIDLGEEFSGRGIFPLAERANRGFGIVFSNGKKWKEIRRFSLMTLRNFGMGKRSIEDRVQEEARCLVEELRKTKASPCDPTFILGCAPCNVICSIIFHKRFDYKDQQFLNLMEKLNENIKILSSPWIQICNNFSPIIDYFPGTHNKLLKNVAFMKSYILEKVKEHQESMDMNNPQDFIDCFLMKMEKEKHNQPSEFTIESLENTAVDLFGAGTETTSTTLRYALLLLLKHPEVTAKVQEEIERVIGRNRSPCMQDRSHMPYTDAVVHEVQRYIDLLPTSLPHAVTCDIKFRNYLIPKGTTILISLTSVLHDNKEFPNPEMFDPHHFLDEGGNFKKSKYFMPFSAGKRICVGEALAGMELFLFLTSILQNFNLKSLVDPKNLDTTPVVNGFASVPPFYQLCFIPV

Take `CC(C)C[C@](C)(N)COc1ccc(-c2ccnc(C(F)F)c2)c2cnccc12`: the half-inhibitory concentration (IC50) in [1] was greater than 50 nM.

In data set [1], `CC(C)C[C@](C)(N)COc1ccc(-c2ccnc(C(F)F)c2)c2nncn12` registered an IC50 greater than 20 nM.

`Cc1cn2c(OC[C@@](C)(N)CC(C)C)ccc(-c3ccnc(C(F)F)c3)c2n1` returned an IC50 in data set [1] greater than 20 nM.

As to `CC(C)C[C@](C)(N)COc1ccc(-c2ccnc(C(F)F)c2)nc1C(F)F` [PILAVAPADIN], the IC50 in data set [1] is 5 nM; in data set [19], 3400 nM; in data set [20], 9500 nM. Further, the clearance in data set [2] is 12.2 mL/min/kg; in data set [31] it was 28.3 mL/min/kg; in data set [37] it was 20 mL/min/kg. The Vd in [3] amounted to 18 L/kg; in data set [29] it was 25 L/kg; in data set [35], 5.3 L/kg. Also, the AUC(0-t) was determined as 892 ng·h/mL in [4], 9150 ng·h/mL in data set [8], 3790 ng·h/mL in data set [26] and 4740 ng·h/mL in [32]. The half-life in [5] was 17.3 h; in data set [9], 19.6 h; in [11], 2.21 h; in data set [12], 2.61 h; in [13] it was 1.61 h; in data set [14] it was 1.11 h. The half-life is 9.9 h in data set [30] and 3.2 h in data set [36]. Also, the Cmax in data set [6] amounted to 718 ng/mL. The Tmax in data set [7] came to 1.17 h; in data set [27], 6.7 h; in [33], 2.3 h. Moreover, the values for the bioavailability in [10], in data set [28] and in data set [34] were 103%, 77% and 116%, respectively. Also, the fraction unbound in data set [15] was found to be 0.0875; in [16], 0.02; in data set [17], 0.0894; in data set [18] it was 0.0417. Also, the inhibition at 10 µM in [21], in [22], in data set [23] and in data set [24] was less than 20% each time. The Kp in [25] worked out at 13.9.

For the compound `CC(C)C[C@](C)(N)COc1ccc(-c2ccnc(C(F)F)c2)n2cnnc12`, the concentration for half-maximal inhibition (IC50) in [1] was greater than 20 nM.

`CC(C)C[C@](C)(N)COc1ccc(-c2ccnc(C(F)F)c2)c2nc(C(F)F)cn12`: the IC50 in data set [1] is greater than 20 nM.

`CC(C)C[C@](C)(N)COc1ccc(-c2ccnc(C(F)F)c2)c2cncn12` gave a Cmax in [6] of 407 ng/mL. For the same compound, the time of peak concentration (Tmax) in data set [7] came out at 0.8 h. This compound also yielded an AUC(0-t) in data set [8] of 2340 ng·h/mL. The half-life in data set [9] is 3.2 h.

In [1], `CC(C)C[C@](C)(N)COc1ccc(-c2ccnc(C(F)F)c2)n2ccnc12` registered a half-maximal inhibitory concentration (IC50) greater than 20 nM.

As to `Cc1cnc2c(-c3ccnc(C(F)F)c3)ccc(OC[C@@](C)(N)CC(C)C)n12`, the IC50 in data set [1] was greater than 20 nM.

Take `CC(C)C[C@](C)(N)COc1ccc(-c2ccnc(C(F)F)c2)n2cncc12`: in data set [2], the clearance is 45 mL/min/kg. Also, the Vd in data set [3] worked out at 11 L/kg. Also, the area under the curve AUC(0-t) in data set [4] worked out at 318 ng·h/mL; in data set [8] it was 4550 ng·h/mL. Moreover, the half-life in data set [5] was 2.8 h; in [9], 3.27 h; in data set [11], 2.12 h; in data set [12], 2.23 h; in data set [13] it was 1.85 h; in data set [14] it was 1.72 h. This compound came in with a Cmax in data set [6] of 706 ng/mL. In addition, the Tmax in data set [7] was 1 h. In data set [10], the bioavailability was found to be 143%. The unbound share (fraction unbound) in [15] came out at 0.23; in [16], 0.107; in data set [17] it was 0.213; in data set [18], 0.195. The IC50 in [19] is 30000 nM; in data set [20] it was 43000 nM. Also, the inhibition at 10 µM was less than 20% in data set [21], 81.1% in [22], less than 20% in data set [23] and less than 20% in data set [24].
